Reference: US20240018125A1, “CYCLIC ISOTHIOUREA DERIVATIVES AS CXCR4 MODULATORS” (ERMIUM THERAPEUTICS, priority 2020, published 2024)

What was measured:
[1] = test system: irrelevant G-protein coupled receptor (GPCR); experiment: G.Validation fluorescence assay on irrelevant GPCR control; type: biochemical; details: SDF1α 15 μM, AMD3100 100 μM, Example 60 150 μM; SB3L1
Male C57BL/6 Rj mice = experiment: In vivo evaluation of CXCR4 antagonistic activity by mobilisation of blood cells; parameters: species or system mouse; details: 20 mg/kg single i.p., 2:30 h after injection; shown also for neutrophils, monocytes, lymphocytes, eosinophils
Protocol: Male C57BL/6 Rj mice (7 weeks old) were obtained from Janvier (Le Genest-Saint-Isle, France). Mice were treated by a single intraperitoneal (i.p.) administration at timepoint 0 h. The experimental groups (n=10) were defined as follows: • Mice of group 1 were treated with vehicle only (0.9% NaCl aqueous solution) • Mice of group 2 were treated with AMD3100 (CXCR4 antagonist, Sigma-Aldrich, St Louis, USA) at 20 mg/kg (volume of 10 mL/kg) in 0.9% NaCl aqueous solution • Mice of group 3 were treated with an exemplary compound of formula (I), i.e. Example 60, at 30 mg/kg (volume of 10 mL/kg) in 0.9% NaCl aqueous solution
After 2:30 h, whole blood (at least 200 μl, max 1 mL) was collected in EDTA tubes before sacrifice by an intracardiac puncture under isoflurane anaesthesia and haematology parameters were determined the same day by laser flow cytometry, optical fluorescence and Laminar Flow Impedance™ using the ProCyte Dx hematology analyser (IDEXX, Eau Claire, USA). Differential leukocyte counts were performed to quantify specific immune cell types. Data are reported as total number of cells (K/μL), mean±S.E.M., as well as the statistical significance versus the vehicle control group using unpaired t-tests.

[2] = molecular target: T1, Recombinant CXCR4 receptor (Homo sapiens, UniProt P61073); experiment: G.Validation fluorescence assay of CXCR4 receptor conformational changes in lipidic micelles SB2L4 and SB3L1; type: biochemical; details: SB2L4 and SB3L1, 40 min
T1 construct: host or cells: HEK-293 T cells
Description: G.Validation® assay is […] biotech proprietary fluorescence based assay that assesses conformational changes of a receptor upon activation/inactivation. Recombinant CXCR4 receptor is produced and purified from HEK-293 T cells using […] proprietary mixes. Receptor is then reconstituted in detergent buffers containing lipids mimicking the lipidic composition of dendritic cells (DC) and macrophages (SB2L4 and SB3L1). Thereafter, the receptor is labelled with a non-modifying probe allowing the detection of the activation state and conformational change of the receptor upon addition of a ligand. Indeed, the probe emission spectra maximum wavelength (Amax) shifts according to activation/inactivation of the receptor. Thus, kinetic of activation/inactivation of the receptor can be followed by monitoring Amax shift after addition of a ligand over time. Emission spectra were registered for 40 minutes after addition of each ligand. […] Activation/inactivation kinetics were also followed using an exemplary compound of formula (I), i.e.

T1 sequence (P61073 whole entry): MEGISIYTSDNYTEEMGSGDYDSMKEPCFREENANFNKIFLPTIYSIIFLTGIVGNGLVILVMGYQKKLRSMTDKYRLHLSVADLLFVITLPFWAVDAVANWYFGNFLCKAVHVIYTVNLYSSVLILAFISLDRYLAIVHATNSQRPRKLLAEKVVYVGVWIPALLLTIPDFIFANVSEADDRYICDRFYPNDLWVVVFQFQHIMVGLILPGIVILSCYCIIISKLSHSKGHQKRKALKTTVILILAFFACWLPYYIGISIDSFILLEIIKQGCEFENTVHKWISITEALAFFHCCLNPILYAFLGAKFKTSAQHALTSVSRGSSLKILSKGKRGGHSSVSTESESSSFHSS

## c1cc(CN2CCCNCCNCCCNCC2)ccc1CN1CCCNCCNCCCNCC1 [AMD3100, plerixafor, reference compound]
[1]
  irrelevant GPCR activation state, Amax shift in fluorescence: Neither benchmark ligands SDF1α and AMD3100, nor Example 60 showed any effect
Male C57BL/6 Rj mice
  numbers of white blood cells in the blood vs vehicle control: significantly higher
[2]; ligand 100 μM added after Example 60 150 μM
  CXCR4 structural activation/inactivation, Amax shift in fluorescence: did not reverse Example 60 effect
[2]; ligand 100 μM added after SDF1α 15 μM
  CXCR4 structural activation/inactivation, Amax shift in fluorescence: reversed SDF1α effect with a blue shift
